Article PMC10033419, “Blocking NS3–NS4B interaction inhibits dengue virus in non-human primates” (Nature, 2023)
Like-named read-outs stand apart in the source and are kept apart here.

What was measured:
HCV Genotype 1b replicon = test: microbe, parasite or virus in culture; format: cell-based; settings: Hepatitis C virus
DENV-2 RL strain = test: Survival study, lethal DENV challenge with 4G2 antibody; format: in vivo, AG129 mice

COc1cc(N[C@H](C(=O)c2c[nH]c3ccc(OC(F)(F)F)cc23)c2ccc(Cl)cc2OC)cc(S(C)(=O)=O)c1 [JNJ-1802]
5.5 µM: EC50 (HCV Genotype 1b replicon)
100%: % Survival (DENV-2 RL strain; 802R_0.3, BID, d p.i. 0) | % Survival (DENV-2 RL strain; 802R_0.3, BID, d p.i. 1) | % Survival (DENV-2 RL strain; 802R_0.3, BID, d p.i. 4) | % Survival (DENV-2 RL strain; 802R_0.3, BID, d p.i. 5) | % Survival (DENV-2 RL strain; 802R_0.3, BID, d p.i. 6) | % Survival (DENV-2 RL strain; 802R_0.3, BID, d p.i. 7) | % Survival (DENV-2 RL strain; 802R_0.3, BID, d p.i. 8) | % Survival (DENV-2 RL strain; 802R_0.3, BID, d p.i. 9) | % Survival (DENV-2 RL strain; 802R_0.3, BID, d p.i. 10) | % Survival (DENV-2 RL strain; 802R_0.3, BID, d p.i. 11) | % Survival (DENV-2 RL strain; 802R_0.3, BID, d p.i. 12) | % Survival (DENV-2 RL strain; 802R_0.3, BID, d p.i. 13) | % Survival (DENV-2 RL strain; 802R_0.3, BID, d p.i. 14) | % Survival (DENV-2 RL strain; 802R_0.3, BID, d p.i. 15) | % Survival (DENV-2 RL strain; 802R_0.3, BID, d p.i. 16) | % Survival (DENV-2 RL strain; 802R_1, BID, d p.i. 0) | % Survival (DENV-2 RL strain; 802R_1, BID, d p.i. 1) | % Survival (DENV-2 RL strain; 802R_1, BID, d p.i. 2) | % Survival (DENV-2 RL strain; 802R_1, BID, d p.i. 4) | % Survival (DENV-2 RL strain; 802R_1, BID, d p.i. 5) | % Survival (DENV-2 RL strain; 802R_1, BID, d p.i. 6) | % Survival (DENV-2 RL strain; 802R_1, BID, d p.i. 7) | % Survival (DENV-2 RL strain; 802R_1, BID, d p.i. 8) | % Survival (DENV-2 RL strain; 802R_1, BID, d p.i. 9) | % Survival (DENV-2 RL strain; 802R_1, BID, d p.i. 10) | % Survival (DENV-2 RL strain; 802R_1, BID, d p.i. 11) | % Survival (DENV-2 RL strain; 802R_1, BID, d p.i. 12) | % Survival (DENV-2 RL strain; 802R_1, BID, d p.i. 13) | % Survival (DENV-2 RL strain; 802R_1, BID, d p.i. 14) | % Survival (DENV-2 RL strain; 802R_1, BID, d p.i. 15) | % Survival (DENV-2 RL strain; 802R_1, BID, d p.i. 16) | % Survival (DENV-2 RL strain; 802R_1, BID, d p.i. 17) | % Survival (DENV-2 RL strain; 802R_1, BID, d p.i. 18) | % Survival (DENV-2 RL strain; 802R_1, BID, d p.i. 19) | % Survival (DENV-2 RL strain; 802R_1, BID, d p.i. 20) | % Survival (DENV-2 RL strain; 802R_1, BID, d p.i. 21) | % Survival (DENV-2 RL strain; 802R_1, BID, d p.i. 22) | % Survival (DENV-2 RL strain; 802R_1, BID, d p.i. 23) | % Survival (DENV-2 RL strain; 802R_1, BID, d p.i. 24) | % Survival (DENV-2 RL strain; 802R_1, BID, d p.i. 25 = end of study) | % Survival (DENV-2 RL strain; 802R_3, BID, d p.i. 0) | % Survival (DENV-2 RL strain; 802R_3, BID, d p.i. 1) | % Survival (DENV-2 RL strain; 802R_3, BID, d p.i. 2) | % Survival (DENV-2 RL strain; 802R_3, BID, d p.i. 4) | % Survival (DENV-2 RL strain; 802R_3, BID, d p.i. 5) | % Survival (DENV-2 RL strain; 802R_3, BID, d p.i. 6) | % Survival (DENV-2 RL strain; 802R_3, BID, d p.i. 7) | % Survival (DENV-2 RL strain; 802R_3, BID, d p.i. 8) | % Survival (DENV-2 RL strain; 802R_3, BID, d p.i. 9) | % Survival (DENV-2 RL strain; 802R_3, BID, d p.i. 10) | % Survival (DENV-2 RL strain; 802R_3, BID, d p.i. 11) | % Survival (DENV-2 RL strain; 802R_3, BID, d p.i. 12) | % Survival (DENV-2 RL strain; 802R_3, BID, d p.i. 13) | % Survival (DENV-2 RL strain; 802R_3, BID, d p.i. 14) | % Survival (DENV-2 RL strain; 802R_3, BID, d p.i. 15) | % Survival (DENV-2 RL strain; 802R_3, BID, d p.i. 16) | % Survival (DENV-2 RL strain; 802R_3, BID, d p.i. 17) | % Survival (DENV-2 RL strain; 802R_3, BID, d p.i. 18) | % Survival (DENV-2 RL strain; 802R_3, BID, d p.i. 19) | % Survival (DENV-2 RL strain; 802R_3, BID, d p.i. 20) | % Survival (DENV-2 RL strain; 802R_3, BID, d p.i. 21) | % Survival (DENV-2 RL strain; 802R_10, BID, d p.i. 0) | % Survival (DENV-2 RL strain; 802R_10, BID, d p.i. 1) | % Survival (DENV-2 RL strain; 802R_10, BID, d p.i. 2) | % Survival (DENV-2 RL strain; 802R_10, BID, d p.i. 4) | % Survival (DENV-2 RL strain; 802R_10, BID, d p.i. 5) | % Survival (DENV-2 RL strain; 802R_10, BID, d p.i. 6) | % Survival (DENV-2 RL strain; 802R_10, BID, d p.i. 7) | % Survival (DENV-2 RL strain; 802R_10, BID, d p.i. 8) | % Survival (DENV-2 RL strain; 802R_10, BID, d p.i. 9) | % Survival (DENV-2 RL strain; 802R_10, BID, d p.i. 10) | % Survival (DENV-2 RL strain; 802R_10, BID, d p.i. 11) | % Survival (DENV-2 RL strain; 802R_10, BID, d p.i. 12) | % Survival (DENV-2 RL strain; 802R_10, BID, d p.i. 13) | % Survival (DENV-2 RL strain; 802R_10, BID, d p.i. 14)
≥ 80%: survival (DENV-2 RL strain; 0.6–20 mg per kg per day, b.i.d., vehicle 0%)
20.3 µM: EC90 (HCV Genotype 1b replicon; read-out: EC90, Mean)
90%: % Survival (DENV-2 RL strain; 802R_0.3, BID, d p.i. 17) | % Survival (DENV-2 RL strain; 802R_0.3, BID, d p.i. 18) | % Survival (DENV-2 RL strain; 802R_0.3, BID, d p.i. 19) | % Survival (DENV-2 RL strain; 802R_0.3, BID, d p.i. 20) | % Survival (DENV-2 RL strain; 802R_0.3, BID, d p.i. 21) | % Survival (DENV-2 RL strain; 802R_0.3, BID, d p.i. 22) | % Survival (DENV-2 RL strain; 802R_0.3, BID, d p.i. 23) | % Survival (DENV-2 RL strain; 802R_0.3, BID, d p.i. 24) | % Survival (DENV-2 RL strain; 802R_0.3, BID, d p.i. 25 = end of study) | % Survival (DENV-2 RL strain; 802R_3, BID, d p.i. 22) | % Survival (DENV-2 RL strain; 802R_3, BID, d p.i. 23)
80%: % Survival (DENV-2 RL strain; 802R_3, BID, d p.i. 24) | % Survival (DENV-2 RL strain; 802R_3, BID, d p.i. 25 = end of study) | % Survival (DENV-2 RL strain; 802R_10, BID, d p.i. 15) | % Survival (DENV-2 RL strain; 802R_10, BID, d p.i. 16) | % Survival (DENV-2 RL strain; 802R_10, BID, d p.i. 17) | % Survival (DENV-2 RL strain; 802R_10, BID, d p.i. 18) | % Survival (DENV-2 RL strain; 802R_10, BID, d p.i. 19) | % Survival (DENV-2 RL strain; 802R_10, BID, d p.i. 20) | % Survival (DENV-2 RL strain; 802R_10, BID, d p.i. 21) | % Survival (DENV-2 RL strain; 802R_10, BID, d p.i. 22) | % Survival (DENV-2 RL strain; 802R_10, BID, d p.i. 23) | % Survival (DENV-2 RL strain; 802R_10, BID, d p.i. 24) | % Survival (DENV-2 RL strain; 802R_10, BID, d p.i. 25 = end of study)
5.45 µM: EC50 (HCV Genotype 1b replicon; read-out: EC50, Mean)
